Positions of bridges follow the written chain, without caps; N, C: chain ends. Non-standard residues stand in square brackets, D forms with d. Residues, ends and D or L forms follow the SMILES beside them. Chains are numbered I, II in the order given. Gly(N-piperonyl) = O=C(O)CNCc1ccc2c(c1)OCO2; N(4-MeOBn)Gly = COc1ccc(CNCC(=O)O)cc1; Nrpe = C[C@@H](NCC(=O)O)c1ccccc1; Nlys = NCCCCNCC(=O)O
Experiments:
[1] = Lipid ELISA-like binding assay
From the text: Structural features of PPS1and PS were compared to determine why PPS1 preferred PS over PC. PPS1 has three positive charged residues aligned together and a hydrophobic region with four consecutive aromatic rings (FIG. 9A). This can perfectly form both electrostatic and hydrophobic interactions with opposing negatively charged PS head groups and its hydrophobic tail regions.
One of the major questions arising at this point is how PPS1 or PPS1D1 specifically recognizes PS over PC, as both lipids have negatively charged phosphate head groups. To address this specificity concern, ELISA-like binding assay were expanded to include other membrane phospholipids such as phosphatidylethanolamine (PE), sphingomyelin (SM), phosphatidic acid (PA), phosphatidylinositol (PI) and phosphatidylglycerol (PG). […] This additional negative charge can be responsible for the interaction with the positively charged region of PPS1 or PPS1D1, while the hydrophobic regions of PPS1 or PPS1D1 may interact with hydrophobic tail groups of the lipids through van der Waals forces. […] The membrane was treated with biotin labeled PPS1D1 and binding was detected by immunoblotting with streptavidin-HRP. […] It has been reported that PS can form a bilayer lamellar and reverse hexagonal phase. PS is mainly in a lamellar phase after hydration at physiological pH. By validating our binding through an ELISA-like assay and liposomes, PPS1D1 has an equal opportunity to bind to each phase of PS.
Lipids (Avanti Polar Lipids) were dissolved in hexane at 10 μg/ml and coated on to Immulon 1B “U” bottom microtiter plates (ThermoFisher, MA). Hexane was evaporated at room temp (in the hood) and the plates were blocked with 200 μl of 1% BSA in PBS for 1 hour. Plates were washed with 3× PBS. […] Plates were washed with 5× PBS and binding was detected with streptavidin-HRP (1:2000 in blocking buffer) followed by 100 μl OPD (Sigma-Aldrich). The reaction was stopped with 100 μl 0.18M H2SO4 and absorbance was read at 490 nm using the spectrophotometer (Spectramax i3, Molecular Devices, CA).

HCC4017 cells = experiment: MTS cell viability assay; format: cell-based, human
Experimental: After confirming the binding and specificity of the PPS1 on HCC4017 lung cancer cells, whether this compound has any biological effects on HCC4017 lung cancer cells was assayed. The gold standard cell viability (MTS) assay was used. […] On one of the repetitive experiments of this assay, Cystinylated-PPS1 compound was included (FIG. 6A). This was the intermediate compound used to attach the FITC-malemide for binding assays described previously. […] The only difference between this Cystinylated-PPS1 and the original PPS1 compound was just a single cysteine amino acid at the C-terminal. It was difficult to rationalize having a single amino acid residue at the terminus of the sequence causing a large difference of activity, other possibilities were considered. Cysteine has sulfur (—SH) group on the side chain and two of these can easily form disulfide bonds. […]
A homo-dimeric version of PPS1 was synthesized. […] The resulting dimeric version of the PPS1 compound, PPS1D1 (FIG. 6C), and the analogous dimeric versions of scrambled PC2, PC2D1 (FIG. 6E), and control compound C462, PC462D1 (FIG. 82), were then evaluated for activity. […] As described above, HCC4017 cells and HBEC30kt and HBEC3kt cells were grown in 96 well plates on day 1, treated serial dilutions of PPS1, PPS1D1, C462 and C462D1 on day 2, and viable cell count was measured using MTS reagent on day 3. […]

## COc1ccc(CN(CC(=O)N(CCCCN)CC(=O)N[C@@H](CCCCN)C(=O)N[C@H](CCCCN)C(=O)N[C@@H](CCSC)C(=O)NCCCC[C@H](NC(=O)[C@H](CCSC)NC(=O)[C@@H](CCCCN)NC(=O)[C@H](CCCCN)NC(=O)CN(CCCCN)C(=O)CN(Cc2ccc(OC)cc2)C(=O)CN(C(=O)CN(Cc2ccc3c(c2)OCO3)C(=O)CN[C@H](C)c2ccccc2)[C@H](C)c2ccccc2)C(N)=O)C(=O)CN(C(=O)CN(Cc2ccc3c(c2)OCO3)C(=O)CN[C@H](C)c2ccccc2)[C@H](C)c2ccccc2)cc1 [PPS1D1] (I: H-[Nrpe][Gly(N-piperonyl)][Nrpe][N(4-MeOBn)Gly][Nlys]K[dK]MK-NH2 / II: H-[Nrpe][Gly(N-piperonyl)][Nrpe][N(4-MeOBn)Gly][Nlys]K[dK]M; amide I:9-II:C; N-terminus assumed)
[1]
  binding to PA: displayed binding
  binding to PG: displayed binding
  binding to PI: displayed binding
HCC4017 cells; HCC4017, tested at 6, 12 and 24 hours post treatment
  activity at different times post treatment: somewhat similar
HCC4017 cells; MTS, HCC4017
  IC50: ~10 µM

— patent publication US10849875B2, “Cancer specific lipid targeted peptidomimetics” (University of Houston System, priority 2015, dated 2020)
